The target of data set [1] is T1, PAR1 (Homo sapiens, UniProt P25116).
T1 construct: delivered intravenously in 100 patients with coronary artery disease (CAD) and acute coronary syndrome (ACS) undergoing cardiac catheterization; endogenous in cells; host or cells: patients of the TRIP-PCI trial (platelets ex vivo; whole body in vivo)
T1 sequence (P25116 22-425): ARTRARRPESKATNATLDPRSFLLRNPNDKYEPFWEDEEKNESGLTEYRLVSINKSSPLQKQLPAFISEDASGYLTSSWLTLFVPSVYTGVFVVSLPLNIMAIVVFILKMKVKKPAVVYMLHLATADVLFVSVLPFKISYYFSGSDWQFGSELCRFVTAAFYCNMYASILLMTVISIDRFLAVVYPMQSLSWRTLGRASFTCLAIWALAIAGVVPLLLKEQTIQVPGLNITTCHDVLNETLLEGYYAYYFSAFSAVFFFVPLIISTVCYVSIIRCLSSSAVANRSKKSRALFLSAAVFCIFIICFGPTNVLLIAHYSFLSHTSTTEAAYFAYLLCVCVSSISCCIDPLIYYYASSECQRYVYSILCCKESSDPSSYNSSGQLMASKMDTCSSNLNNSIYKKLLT
Put plainly: TRIP-PCI phase 2 study in patients with CAD/ACS undergoing cardiac catheterization. It is filed as in vivo. The conditions noted are these: 9 patients with heart failure, EFs 30-53%. As for the experimental part: TRIP-PCI was a multicenter, randomized, double-blind placebo-controlled phase 2 study that examined the safety, tolerability, and efficacy of PZ-128 at two dose levels (0.3 and 0.5 mg/kg, versus placebo, 1:1:1), delivered intravenously in 100 patients with coronary artery disease (CAD) and acute coronary syndrome (ACS) undergoing cardiac catheterization (Kuliopulos et al., Arterioscler. Thromb. Vasc. Biol 40(12):2990-3003, 2020). PAR1 inhibitors are intended to suppress thrombin-induced platelet activation to reduce damage during percutaneous coronary intervention (PCI) and ACS, potentially reducing the risk of myocardial infarction, stroke, and serious adverse events (Mackman et al., Nat. Rev. Drug Discov. 19(5):333-352, 2020). PZ-128 clinical trial participants received a single 2-h intravenous infusion of PZ-128 or placebo started just prior to catheterization along with standard antiplatelet therapy. […] The majority of events occurred within the first 24 h, with a nonsignificant decrease in hazard ratio (HR=0.81) of a MACE/myonecrosis event in the PZ-128 treated groups versus placebo. […]

The target in data set [2] is T1, PAR1. The conditions noted are these: cited from earlier work.

The structures appear in SMILES notation. Where a SMILES comes first, the peptide text is derived from it. The star is where a group is joined. Palmitoyl = CCCCCCCCCCCCCCCC(=O)*

Consider `CCCCCCCCCCCCCCCC(=O)N[C@@H](CCCCN)C(=O)N[C@@H](CCCCN)C(=O)N[C@@H](CO)C(=O)N[C@@H](CCCNC(=N)N)C(=O)N[C@@H](C)C(=O)N[C@@H](CC(C)C)C(=O)N[C@@H](Cc1ccccc1)C(N)=O` [PZ-128, Palmitate-KKSRALF-NH2] (Palmitoyl-KKSRALF-NH2), for which the “tolerability in heart failure patients” value in data set [1] is reported as “tolerated well”. In addition, the “PAR1 aggregation response recovered” value in data set [2] (at 14 days post-dose) was 50%. In data set [2] (post-dose), the “time at which inhibition of SFLLRN-induced platelet aggregation could be detected” value is at most 1 h and the “time of peak inhibition of SFLLRN-induced platelet aggregation” value is given as 24 h.

Source of the values: patent US20240424053A1, “METHODS AND COMPOSITIONS FOR PROVIDING MYOCARDIAL PROTECTION AND TREATING MYOCARDIAL STRESS AND FIBROSIS” (Tufts Medical Center, Inc., priority 2021, published 2024).
